Reference: PubChem BioAssay (NCI)
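These data come from cells grown in 96-well plates and exposed to compound for 48 hours at five concentrations. The concentration for full growth arrest is given as TGI.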

Assays:
Test in all cases: NCI anticancer screen, dose series, 48 h
SK-OV-3 ovarian = tested on: SK-OV-3 ovarian
786-0 renal = tested on: 786-0 renal
K-562 leukemia = tested on: K-562 leukemia
NCI-H522 lung = tested on: NCI-H522 lung
EKVX NSCLC = tested on: EKVX NSCLC
A549 NSCLC = tested on: A549 NSCLC
DMS 273 small cell lung = tested on: DMS 273 small cell lung
SW-620 colon = tested on: SW-620 colon
SK-MEL-2 melanoma = tested on: SK-MEL-2 melanoma
M14 melanoma = tested on: M14 melanoma
DLD-1 colon = tested on: DLD-1 colon
TK-10 renal = tested on: TK-10 renal
HL-60(TB) leukemia = tested on: HL-60(TB) leukemia
LXFL 529 NSCLC = tested on: LXFL 529 NSCLC
RXF 393 renal = tested on: RXF 393 renal
SK-MEL-5 melanoma = tested on: SK-MEL-5 melanoma
HOP-62 NSCLC = tested on: HOP-62 NSCLC
CCRF-CEM leukemia = tested on: CCRF-CEM leukemia
XF 498 CNS = tested on: XF 498 CNS
SF-539 CNS = tested on: SF-539 CNS
A498 renal = tested on: A498 renal
NCI-H460 lung = tested on: NCI-H460 lung
OVCAR-5 ovarian = tested on: OVCAR-5 ovarian
SNB-78 CNS = tested on: SNB-78 CNS
M19-MEL melanoma = tested on: M19-MEL melanoma
HT29 colon = tested on: HT29 colon
MOLT-4 leukemia = tested on: MOLT-4 leukemia
LOX IMVI melanoma = tested on: LOX IMVI melanoma
IGROV1 ovarian = tested on: IGROV1 ovarian
HCT-15 colon = tested on: HCT-15 colon
SK-MEL-28 melanoma = tested on: SK-MEL-28 melanoma
UACC-62 melanoma = tested on: UACC-62 melanoma
HOP-92 NSCLC = tested on: HOP-92 NSCLC
SF-295 CNS = tested on: SF-295 CNS
ACHN renal = tested on: ACHN renal
UACC-257 melanoma = tested on: UACC-257 melanoma
SNB-19 CNS = tested on: SNB-19 CNS
SN12C renal = tested on: SN12C renal
NCI-H226 lung = tested on: NCI-H226 lung
SF-268 CNS = tested on: SF-268 CNS
CAKI-1 renal = tested on: CAKI-1 renal
RPMI-8226 leukemia = tested on: RPMI-8226 leukemia
COLO 205 colon = tested on: COLO 205 colon
MALME-3M melanoma = tested on: MALME-3M melanoma
KM20L2 colon = tested on: KM20L2 colon
RXF-631 renal = tested on: RXF-631 renal
HCT-116 colon = tested on: HCT-116 colon
SNB-75 CNS = tested on: SNB-75 CNS
OVCAR-8 ovarian = tested on: OVCAR-8 ovarian
OVCAR-4 ovarian = tested on: OVCAR-4 ovarian
DMS 114 small cell lung = tested on: DMS 114 small cell lung
UO-31 renal = tested on: UO-31 renal
NCI-H23 lung = tested on: NCI-H23 lung
OVCAR-3 ovarian = tested on: OVCAR-3 ovarian
U251 CNS = tested on: U251 CNS
SR leukemia = tested on: SR leukemia
HCC-2998 colon = tested on: HCC-2998 colon
KM12 colon = tested on: KM12 colon
HOP-18 NSCLC = tested on: HOP-18 NSCLC

Measured: TGI

CCOC(=O)c1ccc(N=Cc2ccc(N(CCC#N)CCC#N)cc2)cc1
> 100 µM: SK-OV-3 ovarian | 786-0 renal | K-562 leukemia | NCI-H522 lung | EKVX NSCLC | A549 NSCLC | DMS 273 small cell lung | SW-620 colon | SK-MEL-2 melanoma | M14 melanoma | DLD-1 colon | TK-10 renal | HL-60(TB) leukemia | LXFL 529 NSCLC | RXF 393 renal | SK-MEL-5 melanoma | HOP-62 NSCLC | CCRF-CEM leukemia | XF 498 CNS | SF-539 CNS | A498 renal | NCI-H460 lung | OVCAR-5 ovarian | SNB-78 CNS | M19-MEL melanoma | HT29 colon | MOLT-4 leukemia | LOX IMVI melanoma | IGROV1 ovarian | HCT-15 colon | SK-MEL-28 melanoma | UACC-62 melanoma | HOP-92 NSCLC | SF-295 CNS | ACHN renal | UACC-257 melanoma | SNB-19 CNS | SN12C renal | NCI-H226 lung | SF-268 CNS | CAKI-1 renal | RPMI-8226 leukemia | COLO 205 colon | MALME-3M melanoma | KM20L2 colon | RXF-631 renal | HCT-116 colon | SNB-75 CNS | OVCAR-8 ovarian | OVCAR-4 ovarian | DMS 114 small cell lung | UO-31 renal | NCI-H23 lung | OVCAR-3 ovarian

CCOC(=O)C(/C(=N/NC(=O)OC)C(=O)Nc1ccc(C(C)=O)cc1)c1cnc2ccccc2n1 (configuration not stated)
> 100 µM: SK-OV-3 ovarian | 786-0 renal | K-562 leukemia | NCI-H522 lung | EKVX NSCLC | A549 NSCLC | SW-620 colon | M14 melanoma | DLD-1 colon | TK-10 renal | HL-60(TB) leukemia | U251 CNS | LXFL 529 NSCLC | RXF 393 renal | SK-MEL-5 melanoma | SR leukemia | HOP-62 NSCLC | CCRF-CEM leukemia | XF 498 CNS | SF-539 CNS | HCC-2998 colon | A498 renal | NCI-H460 lung | OVCAR-5 ovarian | SNB-78 CNS | M19-MEL melanoma | HT29 colon | KM12 colon | LOX IMVI melanoma | IGROV1 ovarian | HCT-15 colon | SK-MEL-28 melanoma | UACC-62 melanoma | HOP-92 NSCLC | SF-295 CNS | ACHN renal | UACC-257 melanoma | SNB-19 CNS | SN12C renal | NCI-H226 lung | SF-268 CNS | CAKI-1 renal | COLO 205 colon | MALME-3M melanoma | HOP-18 NSCLC | KM20L2 colon | RXF-631 renal | HCT-116 colon | SNB-75 CNS | OVCAR-8 ovarian | OVCAR-4 ovarian | DMS 114 small cell lung | UO-31 renal | NCI-H23 lung | OVCAR-3 ovarian

O=c1[nH]c(=O)n(C2CC(O)C(CO)O2)cc1/C=C/Br (configuration not stated)
> 100 µM: SK-OV-3 ovarian | 786-0 renal | K-562 leukemia | NCI-H522 lung | EKVX NSCLC | A549 NSCLC | DMS 273 small cell lung | SW-620 colon | SK-MEL-2 melanoma | M14 melanoma | DLD-1 colon | TK-10 renal | HL-60(TB) leukemia | U251 CNS | LXFL 529 NSCLC | RXF 393 renal | SK-MEL-5 melanoma | SR leukemia | HOP-62 NSCLC | CCRF-CEM leukemia | XF 498 CNS | SF-539 CNS | A498 renal | NCI-H460 lung | OVCAR-5 ovarian | SNB-78 CNS | M19-MEL melanoma | HT29 colon | KM12 colon | MOLT-4 leukemia | LOX IMVI melanoma | IGROV1 ovarian | SK-MEL-28 melanoma | UACC-62 melanoma | HOP-92 NSCLC | SF-295 CNS | ACHN renal | UACC-257 melanoma | SNB-19 CNS | SN12C renal | NCI-H226 lung | SF-268 CNS | CAKI-1 renal | MALME-3M melanoma | KM20L2 colon | RXF-631 renal | OVCAR-8 ovarian | OVCAR-4 ovarian | DMS 114 small cell lung | UO-31 renal | NCI-H23 lung

CCOC(=O)C(C(=O)OCC)P(=S)(S)c1ccccc1 (configuration not stated)
> 100 µM: SK-OV-3 ovarian | 786-0 renal | K-562 leukemia | NCI-H522 lung | EKVX NSCLC | A549 NSCLC | DMS 273 small cell lung | SW-620 colon | SK-MEL-2 melanoma | DLD-1 colon | TK-10 renal | HL-60(TB) leukemia | U251 CNS | LXFL 529 NSCLC | RXF 393 renal | SK-MEL-5 melanoma | SR leukemia | HOP-62 NSCLC | CCRF-CEM leukemia | XF 498 CNS | SF-539 CNS | A498 renal | NCI-H460 lung | OVCAR-5 ovarian | M19-MEL melanoma | HT29 colon | KM12 colon | MOLT-4 leukemia | LOX IMVI melanoma | IGROV1 ovarian | SK-MEL-28 melanoma | UACC-62 melanoma | HOP-92 NSCLC | SF-295 CNS | ACHN renal | UACC-257 melanoma | SNB-19 CNS | SN12C renal | NCI-H226 lung | SF-268 CNS | CAKI-1 renal | COLO 205 colon | MALME-3M melanoma | KM20L2 colon | RXF-631 renal | OVCAR-8 ovarian | OVCAR-4 ovarian | DMS 114 small cell lung | UO-31 renal | NCI-H23 lung

CCOC(=O)c1ccc(O)cc1
> 100 µM: SK-OV-3 ovarian | 786-0 renal | K-562 leukemia | NCI-H522 lung | EKVX NSCLC | A549 NSCLC | DMS 273 small cell lung | SW-620 colon | SK-MEL-2 melanoma | M14 melanoma | DLD-1 colon | TK-10 renal | HL-60(TB) leukemia | U251 CNS | RXF 393 renal | SR leukemia | HOP-62 NSCLC | CCRF-CEM leukemia | XF 498 CNS | SF-539 CNS | HCC-2998 colon | NCI-H460 lung | OVCAR-5 ovarian | SNB-78 CNS | M19-MEL melanoma | HT29 colon | KM12 colon | MOLT-4 leukemia | LOX IMVI melanoma | IGROV1 ovarian | HCT-15 colon | SK-MEL-28 melanoma | UACC-62 melanoma | HOP-92 NSCLC | SF-295 CNS | ACHN renal | UACC-257 melanoma | SNB-19 CNS | NCI-H226 lung | SF-268 CNS | CAKI-1 renal | RPMI-8226 leukemia | COLO 205 colon | MALME-3M melanoma | KM20L2 colon | RXF-631 renal | HCT-116 colon | SNB-75 CNS | OVCAR-4 ovarian | DMS 114 small cell lung | UO-31 renal | NCI-H23 lung
